Measurements: US20190093096A1, “COMOSAIN AND BROMELAINS AS IMMUNO-THERAPY IN THE TREATING AND/OR PREVENTING VARIOUS TYPES OF CANCER IN A MAMMAL” (priority 2017, published 2019)

B1: trypsin: proteinase purchased from Sigma-Aldrich (protein, UniProt P00760 24-246, looked up)
Serine protease 1: IVGGYTCGANTVPYQVSLNSGYHFCGGSLINSQWVVSAAHCYKSGIQVRLGEDNINVVEGNEQFISASKSIVHPSYNSNTLNNDIMLIKLKSAASLNSRVASISLPTSCASAGTQCLISGWGNTKSSGTSYPDVLKCLKAPILSDSSCKSAYPGQITSNMFCAGYLEGGKDSCQGDSGGPVVCSGKLQGIVSWGSGCAQKNKPGVYTKVCNYVSWIKQTIASN

Key:
[1] = system: breast cancer cell line; experiment: Growth inhibition of breast cancer cell line by Quercetin and Naringenin in vitro; format: cell-based
[2] = Analysis for fatty streak deposition in thoracic aorta; format: in vivo, New Zealand white rabbits; settings: control group: thick layer; 1% cholesterol diet, 8 weeks
[3] = Fatty degeneration in the liver of the rabbits; format: in vivo, New Zealand white rabbits; settings: 1% cholesterol diet, 8 weeks
Description: According to the report of Fogt F. and Nanji A., (Toxicology and Applied Pharmacology; 136, pp 87-93, 1996) and Keegan A. et al., (Journal of Hepatology; 23, pp 591-600, 1995). Fatty degeneration of liver can be classified into four grades based upon the abnormal fat containing cells around the central vein of liver acinus, for example: grade 1 (0-25%), grade 2 (26-50%), grade 3 (51-75%), grade4 (76-100%). The effects of rutin, quercetin, kaempherol and vitexin on liver tissue on the rabbits from Example 4 Step B were examined.

[4] = Toxicity of rutin, quercetin, kaempherol and vitexin in mice by oral administration; settings: for adverse effects on hematopeutic, renal, hepatic systems / toxicity: oral, mouse, rutin 1500, quercetin 1250, kaempherol 1000, vitexin 500 mg/kg; for body weight during observation / pathological abnormality of internal organs, visually or microscopically / survival at day 180: single oral dose; for body weight during observation: 180 days of observation; for pathological abnormality of internal organs, visually or microscopically: sacrifice on day 181; for survival at day 180: rutin 1500, kaempherol 1000, vitexin 500 mg/kg
[5] = Blood analysis on rabbits fed high cholesterol diets; format: in vivo, New Zealand white rabbits; settings: for decrease of plasma total cholesterol as compared to control group / decrease of plasma triglycerides as compared to control group: 1% cholesterol diet plus 0.15% flavonoid
Experimental: The rabbits were fed for 8 weeks with free access to specific high cholesterol diets and water. Body weight was recorded every 7 days and the records were analyzed. […] (Rutin, quercetin and kaempherol were purchased from Aldrich-Sigma Co. St. Louis, Mo. USA) (Vitexin was purchased from Indofine Co. Sumerville, N.J. USA)
(Step B) After 8 weeks of breeding, the rabbits were anesthetized with injection of ketamine 75 mg/kg in the femoral muscle and sacrificed. Blood samples were collected from the heart of each rabbit to determine the blood analysis consisting of; complete blood count (CBC), Chemistry-7 and 24, (including Liver and renal function tests), lipid profiles, (including Total cholesterol, HDL, LDL, VLDL and triglycerides), coagulation factors consisting of; Prothrombin time (PT), Partial thromboplastin time (PTT), and immuno-globulin-E (an anti-allergenic factor).
The blood samples collected from rabbits of the six dietary groups were allowed to stand for 2 hours, then centrifuged at 4000 rpm for 10 minutes. (Megafuge, Baxter-Heraeus instrument Co. N.J., USA) The supernatants were separated and stored in a deep freeze before analysis. The chemistry analysis was carried out by blood chemistry analyzer (Cobras-Integra-700, Roche Diagnostic Lab. Indiana, USA) to determine the changes in total cholesterol, HDL, LDL, triglycerides, liver function tests (such as SGOT, SGPT, G-GPT) and coagulation factors (PT, PTT) (Bayer-MLA-Electra-900 Automatic coagulation timer). The results were tested by using student t-test and Microsoft excel-7.0 program. The results are depicted in Table III. • 3.

[6] = system: lung cancer cells; experiment: Inhibition of tumor cell growth of lung cancer by pepsin and trypsin in vitro; format: cell-based; settings: 72 hours at 37 C, 10% CO2, Coulter counter
Description: The graph represents the two experiments with Pepsin and Trypsin.

Molecule | growth of breast cancer cell line [1] | macrophage lipid cell complex in the aorta walls (microscopic pictures) [2] | microscopic features of the liver (fat containing cells) [3] | adverse effects on hematopeutic, renal, hepatic systems [4] | toxicity [4] | body weight during observation [4] | pathological abnormality of internal organs, visually or microscopically [4] | survival at day 180 [4] | liver function and WBC ([5]; rabbit, in vivo) | decrease of plasma total cholesterol as compared to control group ([5]; rabbits, 8 weeks) [%] | decrease of plasma triglycerides as compared to control group ([5]; rabbits, 8 weeks) [%] | reducing plasma total cholesterol and triglycerides, compared with Simvastatin ([5]; rabbits, 8 weeks) | liver function and WBC ([5]; rabbits, 8 weeks, unlike the Simvastatin group) | tumor cell growth of lung cancer [6]
O=C1C[C@@H](c2ccc(O)cc2)Oc2cc(O)cc(O)c21 [Naringenin] | Growth inhibition | – | – | – | – | – | – | – | – | – | – | – | – | –
O=c1cc(-c2ccc(O)cc2)oc2c(C3O[C@H](CO)[C@@H](O)[C@H](O)[C@H]3O)c(O)cc(O)c12 (stereo partly drawn) [Vitexin, 8-D-glucosyl-4′,5,7 trihydroxy-flavone] | – | no or a very thin layer of macrophage lipid cell complex | almost all of the liver cells are normal without containing fat particles | no adverse effects | no toxicity | no body weight loss | did not develop any pathological abnormality | All mice were alive | not affected | 30 | 17 | more effective | – | –
O=c1c(O)c(-c2ccc(O)cc2)oc2cc(O)cc(O)c12 [Kaempherol, 3,5,7,4′ tetra-hydroxy-flavone] | – | no or a very thin layer of macrophage lipid cell complex | almost all of the liver cells are normal without containing fat particles | no adverse effects | no toxicity | no body weight loss | did not develop any pathological abnormality | All mice were alive | not affected | 30 | 22 | more effective | – | –
C[C@@H]1O[C@@H](OC[C@H]2O[C@@H](Oc3c(-c4ccc(O)c(O)c4)oc4cc(O)cc(O)c4c3=O)[C@H](O)[C@@H](O)[C@@H]2O)[C@H](O)[C@H](O)[C@H]1O [Rutin, Quercetin-3-rutinoside] | – | – | – | no adverse effects | no toxicity | no body weight loss | did not develop any pathological abnormality | All mice were alive | – | 32 | 45 | – | not affected | –
O=c1c(O)c(-c2ccc(O)c(O)c2)oc2cc(O)cc(O)c12 [Quercetin, 3,5,7,3′,4′ penta-hydroxy flavone] | Growth inhibition | no or a very thin layer of macrophage lipid cell complex | almost all of the liver cells are normal without containing fat particles | no adverse effects | – | no body weight loss | did not develop any pathological abnormality | All mice were alive | not affected | 33 | 47 | more effective | – | –
pepsin: proteinase purchased from Sigma-Aldrich | – | – | – | – | – | – | – | – | – | – | – | – | – | Inhibition of tumor cell growth
B1 | – | – | – | – | – | – | – | – | – | – | – | – | – | Inhibition of tumor cell growth
